From patent US12617777B2, “GPR84 antagonists and uses thereof” (Liminal BioSciences Limited, priority 2021, dated 2026)

Target: T1, human GPR84 receptor (Homo sapiens, UniProt Q9NQS5)
T1 construct: host or cells: HEK293, transient transfection
Experiment: Gαi biosensor BRET assay in HEK293 cells (antagonism of ZQ-16)
Type: cell-based
Conditions: for inhibition at 10 µM: HEK293, single concentration 10 μM (designated F); for IC50: HEK293 cells, antagonism of 200 nmol/L ZQ-16; for inhibition at 2 µM: HEK293, single concentration 2 μM (designated A)
In short: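 Antagonist mode: test compound 5 min at 37° C, followed by ZQ-16 agonist (200 nmol/L, 5 min, room temperature), in HEK293 cells transfected with GPR84 plus Rluc8-tagged Gαi2, GFP10-Gγ2 and Gβ1. Readout as GFP10/Rluc8 emission ratio after 5 μmol/L coelenterazine 400A, net of Rluc8-only and vehicle signal.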

T1 sequence (Q9NQS5 whole entry): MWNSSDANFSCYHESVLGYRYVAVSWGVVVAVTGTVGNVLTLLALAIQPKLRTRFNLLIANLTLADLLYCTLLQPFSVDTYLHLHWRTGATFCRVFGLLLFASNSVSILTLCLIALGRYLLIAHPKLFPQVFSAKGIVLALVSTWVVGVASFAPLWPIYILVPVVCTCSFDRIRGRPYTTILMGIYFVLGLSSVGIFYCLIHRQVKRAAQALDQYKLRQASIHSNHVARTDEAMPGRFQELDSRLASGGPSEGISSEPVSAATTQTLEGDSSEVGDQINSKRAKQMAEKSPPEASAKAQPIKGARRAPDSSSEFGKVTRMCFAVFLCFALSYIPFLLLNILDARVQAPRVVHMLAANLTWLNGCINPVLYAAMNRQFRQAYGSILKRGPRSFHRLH

inhibition at 10 µM [%] | IC50 [µM] | inhibition at 2 µM [%] | SMILES
50 to 75 |  |  | Cc1cc(C#CCO)ccc1-c1cn(CC2OCC(F)(F)CO2)nn1 [Compound I-692]
> 75 |  |  | CC(C)Oc1cc(N2CC(C)(CO)C2)cnc1-c1cn(CC2OCC(C)(C)CO2)nn1 [Compound I-694]
≤ 25 |  |  | Cc1cc(N2CC(C)(CO)C2)cnc1-c1cn(CCc2ncccn2)nn1 [Compound I-695]
25 to 50 |  |  | CN(C)c1cc(N2CC(C)(C(=O)O)C2)ccc1-c1cn(CC2OCC(C)(C)CO2)nn1 [Compound I-696]
> 75 | 0.3 to 1 |  | Cc1cc(C#CCNC2CC2)ccc1-c1cn(CC2OCC(C)(C)CO2)nn1 [Compound I-697]
> 75 | 0.3 to 1 |  | Cc1cc(C#CCN(C)C2CC2)ccc1-c1cn(CC2OCC(C)(C)CO2)nn1 [Compound I-698]
≤ 25 |  |  | CC(c1ccnc(C#CC2CC2)c1)c1cn(CC2CCCCO2)nn1 (stereo not shown) [Compound I-699]
 |  | 50 to 75 | Cc1cc(C#CCN2CC(C)(C)C2)ccc1-c1cn(CC2OCC(F)(F)CO2)nn1 [Compound I-700]
 | ≤ 0.3 | > 75 | C(#CC1CC1)c1cnc(-c2cn(C[C@H]3CCCCO3)nn2)c(OC2CC2)c1 [Compound I-701]
 | ≤ 0.3 | > 75 | CC1(C)COC(Cn2cc(-c3ncc(C#CC4CC4)cc3OC3CC3)nn2)OC1 [Compound I-702]
> 75 | 0.3 to 1 |  | CC1(C)COC(Cn2cc(-c3ncc(N4CC(C)(CO)C4)cc3OC3CC3)nn2)OC1 [Compound I-703]
≤ 25 |  |  | Cc1cc(C#CC2CC2)ccc1-c1cn(CC2OCC(c3ccccc3)CO2)nn1 (stereo not shown) [Compound I-704]
≤ 25 |  |  | Cc1cc(C#CC2CC2)cnc1-c1cn(CC2OCC(c3ccccc3)CO2)nn1 (stereo not shown) [Compound I-705]
> 75 | 0.3 to 1 |  | COCC1(C)CN(c2ccc(-c3cn(CC4OCC(C)(C)CO4)nn3)c(N(C)C)c2)C1 [Compound I-706]
> 75 | ≤ 0.3 |  | CN(C)c1cc(N2CC(C)(CO)C2)ccc1-c1cn(CC2CC3(CC3)CO2)nn1 (stereo not shown) [Compound I-707]
> 75 | ≤ 0.3 |  | CC1(C)COC(Cn2cc(-c3ncc(C#CC4CC4)cc3Cl)nn2)OC1 [Compound I-708]
 | ≤ 0.3 | > 75 | CC1(C)COC(Cn2cc(-c3ncc(C#CCN4CC(C)(C)C4)cc3OC3CC3)nn2)OC1 [Compound I-709]
 | ≤ 0.3 | > 75 | CN(C)c1cc(N2CC(C)(CO)C2)c(F)cc1-c1cn(CC2CC(C)(C)CO2)nn1 (stereo not shown) [Compound I-710]
 | ≤ 0.3 | > 75 | CN(C)c1cc(N2CC(C)(CO)C2)c(F)cc1-c1cn(CC2OCC(C)(C)CO2)nn1 [Compound I-711]
 | ≤ 0.3 | > 75 | Cc1cc(C#CCn2cc(-c3ccc(N(C)C)cc3)nn2)cnc1-c1cn(CC2CCCCO2)nn1 (stereo not shown) [Compound I-712]
50 to 75 | 0.3 to 1 |  | Cc1cc(C#CC2CC2)cnc1-c1cn(CC2OCC(F)(F)CO2)nn1 [Compound I-713]
 | 1 to 3 | > 75 | Cc1ccc(C#CC2CC2)cc1C(CC1CC1)c1cn(CC2OCC(C)(C)CO2)nn1 (stereo not shown) [Compound I-714]
> 75 |  |  | Cc1cc(N2CCN([C@H](C)c3ccccn3)CC2)ccc1-c1cn(CC2OCC(C)(C)CO2)nn1 [Compound I-715]
> 75 | 0.3 to 1 |  | Cc1cc(N2CCN([C@@H](C)c3ccccn3)CC2)ccc1-c1cn(CC2OCC(C)(C)CO2)nn1 [Compound I-716]
≤ 25 |  |  | Cc1cc(C#CCN2CC(C)(C)C2)cnc1-c1cn(CCc2ncccn2)nn1 [Compound I-717]

inhibition at 10 µM [%] | IC50 [µM] | inhibition at 2 µM [%] | SMILES
 | 0.3 to 1 | > 75 | Cc1cccc(-c2cn(CC#Cc3cnc(-c4cn(CC5CCCCO5)nn4)c(C)c3)nn2)c1 (stereo not shown) [Compound I-718]
> 75 | 1 to 3 |  | CN(C)c1cc(C#CC(C)(C)O)ccc1-c1cn(CC2OCC(C)(C)CO2)nn1 [Compound I-719]
> 75 | 0.3 to 1 |  | Cc1cc(C#CCn2cc(-c3ccccc3)nn2)cnc1-c1cn(CC2CCCCO2)nn1 (stereo not shown) [Compound I-720]
 | 0.3 to 1 | > 75 | Cc1ccc(C#CC2CC2)cc1C1(c2cn(CC3OCC(C)(C)CO3)nn2)OCCO1 [Compound I-721]
 | ≤ 0.3 | > 75 | CC1(C)COC(Cn2cc(-c3ncc(C#CCN4CC(C)(C)C4)cc3OCC(F)(F)F)nn2)OC1 [Compound I-722]
> 75 |  |  | COC(c1cn(CC2OCC(F)(F)CO2)nn1)c1cc(C#CC2CC2)c(F)cc1C (stereo not shown) [Compound I-723]
 | ≤ 0.3 | > 75 | COC(c1cn(CC2OCC(C)(C)CO2)nn1)c1cc(C#CC2CC2)c(F)cc1C (stereo not shown) [Compound I-724]
> 75 | 0.3 to 1 |  | COC(c1cn(CC2OCC(F)(F)CO2)nn1)c1cc(C#CC2CC2)ccc1C (stereo not shown) [Compound I-725]
> 75 |  |  | Cc1cc(N2CC(C)(C)C2)cnc1-c1cn(CC2OCC(C)(C)CO2)cn1 [Compound I-726]
 | 0.3 to 1 | > 75 | CC(C)c1cc(C#CCN2CC(C)(C)C2)cnc1-c1cn(CC2OCC(C)(C)CO2)nn1 [Compound I-727]
> 75 |  |  | CN(C)c1cc(N2CC(C)(CO)C2)ccc1-c1cn(CC2OCC3(CCC3)O2)nn1 (stereo not shown) [Compound I-728]
> 75 |  |  | CN(C)c1cc(N2CC(C)(CO)C2)ccc1-c1cn(CC2OCC(F)(F)CO2)nn1 [Compound I-729]
> 75 | 0.3 to 1 |  | Cc1cc(N2CC(C)(CO)C2)c(F)cc1-c1cn(CC2CCCCO2)nn1 (stereo not shown) [Compound I-730]
> 75 | 0.3 to 1 |  | Cc1cc(N2CC(C)(OCc3ccccn3)C2)c(F)cc1-c1cn(CC2CCCCO2)nn1 (stereo not shown) [Compound I-731]
≤ 25 |  |  | Cc1cc(C#CCn2cc(C3CC3)nn2)cnc1-c1cn(CC2CCCCO2)nn1 (stereo not shown) [Compound I-732]
50 to 75 |  |  | CN(C)c1cc(C#N)ccc1-c1cn(CC2OCC(C)(C)CO2)nn1 [Compound I-733, 4-(1-((5,5-dimethyl-1,3-dioxan-2-yl)methyl)-1H-1,2,3-triazol-4-yl)-3-(dimethylamino)benzonitrile]
> 75 | 0.3 to 1 |  | Cc1ccccc1-c1cn(CC#Cc2cnc(-c3cn(CC4CCCCO4)nn3)c(C)c2)nn1 (stereo not shown) [Compound I-734]
 | ≤ 0.3 | > 75 | CC1(C)COC(Cn2cc(-c3ccc(N4CC(C)(CO)C4)cc3CC(F)(F)F)nn2)OC1 [Compound I-735]
≤ 25 |  |  | CC1(C)COC(Cn2cc(-c3ncc(C#CC4CC4)cc3C(F)F)nn2)OC1 [Compound I-736]
> 75 | 0.3 to 1 |  | Cc1cc(N2CC(C)(NCc3ccccn3)C2)c(F)cc1-c1cn(CC2CCCCO2)nn1 (stereo not shown) [Compound I-737]
 |  | ≤ 25 | CC1(C)COC(Cn2cc(-c3ncc(C#CC4CC4)cc3CO)nn2)OC1 [Compound I-738]
 | ≤ 0.3 | > 75 | CC1(C)CCC(Cn2cc(-c3ncc(C#CC4CC4)cc3OC3CC3)nn2)OC1 (stereo not shown) [Compound I-739]
 | ≤ 0.3 | > 75 | CC1(C)COC(Cn2cc(-c3ccc(N4CC(C)(CO)C4)cc3CC(F)(F)F)nn2)C1 (stereo not shown) [Compound I-740]
> 75 |  |  | Cc1c(C#CC2CC2)cccc1C(C)c1cn(C[C@H]2CCCCO2)nn1 (stereo partly shown) [Compound I-741]
